Measurements taken from paper PMC7496286, “The Selectivity of Fosfosal for STAT5b over STAT5a is Mediated by Arg566 in the Linker Domain” (Chembiochem, 2020).
Several values for one entry are separate records, joined by “and”; a condition that tells them apart may be missing. Identical values can stand only once.

Target: T1, STAT5b SH2 domain (Homo sapiens, UniProt P51692)
T1 construct: His; made in house
T1 sequence (P51692 1-787): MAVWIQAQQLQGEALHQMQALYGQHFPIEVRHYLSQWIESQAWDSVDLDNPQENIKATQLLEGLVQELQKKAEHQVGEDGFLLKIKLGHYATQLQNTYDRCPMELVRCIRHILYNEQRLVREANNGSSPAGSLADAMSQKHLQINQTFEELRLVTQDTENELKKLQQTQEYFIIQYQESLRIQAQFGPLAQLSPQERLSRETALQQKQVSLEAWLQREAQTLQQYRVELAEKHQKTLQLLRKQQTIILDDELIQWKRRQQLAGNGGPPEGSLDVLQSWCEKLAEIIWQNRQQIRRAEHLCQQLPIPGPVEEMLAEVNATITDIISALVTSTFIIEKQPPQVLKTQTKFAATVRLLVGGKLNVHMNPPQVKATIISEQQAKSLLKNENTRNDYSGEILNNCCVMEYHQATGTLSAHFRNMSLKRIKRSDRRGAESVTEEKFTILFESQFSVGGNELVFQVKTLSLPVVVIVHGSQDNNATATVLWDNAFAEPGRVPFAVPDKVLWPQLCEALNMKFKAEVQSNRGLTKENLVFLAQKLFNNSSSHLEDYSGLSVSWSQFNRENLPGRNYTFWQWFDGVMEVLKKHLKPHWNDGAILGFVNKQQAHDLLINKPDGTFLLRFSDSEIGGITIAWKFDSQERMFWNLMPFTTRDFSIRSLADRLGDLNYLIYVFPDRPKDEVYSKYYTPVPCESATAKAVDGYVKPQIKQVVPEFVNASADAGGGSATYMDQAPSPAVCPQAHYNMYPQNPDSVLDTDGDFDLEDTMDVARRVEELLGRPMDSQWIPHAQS
Assay: Fluorescence polarization (FP)-based competitive binding assay, wild-type STAT5b
Protocol: Fluorescence polarization assays
The ability of test compounds to displace 5-carboxyfluorescein-GY(PO3H2)LVLDKW (final concentration: 10 nM) from the SH2 domain of STAT5a/b proteins was analyzed. Proteins […]
was applied in dilution series comprising the following concentrations: 0.024 – 200 µM […]
and 0.146 – 600 µM (STAT5b Arg566Glu), respectively. The assays were performed in buffer containing 10 mM Tris, 50 mM NaCl, 1 mM DTT, 1 mM EDTA and 0.1% (v/v) NP-40. Fosfosal was dissolved in DMSO. STAT5a/b proteins and fosfosal were incubated at room temperature for 1 h before adding peptide. Samples were transferred to 384-well microtiter plates and fluorescence polarization was read after a further 1 h incubation time. All measurements were performed in triplicate (n=3), except for STAT5b (n=6) and STAT5a Trp566Arg (n=4). Percent binding was calculated based on a logarithmic curve fit using OriginPro 8G software. IC50 values were converted to Ki values using the published equation.[4] […]
[2] N. Elumalai, A. Berg, K. Natarajan, A. Scharow, T. Berg, Angew. Chem. Int. Ed. 2015, […]
[3] M. Gräber, W. Janczyk, B. Sperl, N. Elumalai, C. Kozany, F. Hausch, T. A. Holak, T.
[4] Z. Nikolovska-Coleska, R. Wang, X. Fang, H. Pan, Y. Tomita, P. Li, P. P. Roller, K.
Krajewski, N. G. Saito, J. A. Stuckey, S. Wang, Anal. Biochem. 2004, 332, 261-273.

Row | SMILES | Kd (Kd, fluorescent tracer peptide binding to STAT5b) | selectivity for STAT5b over STAT5a (Ki STAT5a versus Ki STAT5b) | IC50 (wild-type STAT5b) [µM] | Ki (wild-type STAT5b, Ki calculated from IC50 with published equation, n=6) [µM]
1 | CC(C)C[C@H](NC(=O)[C@H](Cc1ccc(OP(=O)(O)O)cc1)NC(=O)CNC(=O)c1ccc2c(c1)C(=O)OC21c2ccc(O)cc2Oc2cc(O)ccc21)C(=O)N[C@H](C(=O)N[C@@H](CC(C)C)C(=O)N[C@@H](CC(=O)O)C(=O)N[C@@H](CCCCN)C(=O)N[C@@H](Cc1c[nH]c2ccccc12)C(=O)O)C(C)C [5-carboxyfluorescein-GY(PO3H2)LVLDKW] | 0.082 µM and 0.095 µM |  |  | 
2 | O=C(O)c1ccccc1OP(=O)(O)O [fosfosal, O‐phosphorylated salicylic acid] |  | fivefold | 59.5 ± 3.6 | 29.3 ± 1.8
